Test results published in the NIST ThermoML archive (doi:10.1016/j.jct.2012.06.031).

Assay: refractive index (Na D-line) (dimensionless); xn = mol fraction of the nth substance listed
Conditions: 101 kPa, Liquid, Standard Abbe refractometry

OCCCO [propan-1,3-diol] + c1ccncc1
refractive index
Conditions | x2 = 0 | x2 = 0.0999 | x2 = 0.2 | x2 = 0.3 | x2 = 0.4001 | x2 = 0.5 | x2 = 0.5999 | x2 = 0.7 | x2 = 0.7998 | x2 = 0.8998
288.15 K | 1.44089 | 1.44922 | 1.45763 | 1.46592 | 1.47372 | 1.4809 | 1.48773 | 1.49409 | 1.49986 | 1.50582
293.15 K | 1.43947 | 1.44774 | 1.45599 | 1.46414 | 1.47185 | 1.47889 | 1.48556 | 1.4918 | 1.49743 | 1.50319
298.15 K | 1.43805 | 1.44619 | 1.45436 | 1.46235 | 1.46995 | 1.47685 | 1.4834 | 1.4895 | 1.495 | 1.50057
303.15 K | 1.43665 | 1.44473 | 1.45279 | 1.46061 | 1.46805 | 1.47482 | 1.48124 | 1.4872 | 1.49257 | 1.49795
308.15 K | 1.43526 | 1.44328 | 1.45118 | 1.45892 | 1.46621 | 1.4728 | 1.47907 | 1.48491 | 1.49016 | 1.49536
313.15 K | 1.43387 | 1.44171 | 1.44953 | 1.45718 | 1.46432 | 1.47092 | 1.47707 | 1.48267 | 1.48778 | 1.49276
318.15 K | 1.43244 | 1.4402 | 1.44788 | 1.45542 | 1.4624 | 1.4689 | 1.47491 | 1.48045 | 1.4855 | 1.49023
323.15 K | 1.43099 | 1.43869 | 1.44628 | 1.45378 | 1.46051 | 1.467 | 1.47312 | 1.47837 | 1.4833 | 1.48788

c1ccncc1 [pyridine] + OCC(O)CO
refractive index
Conditions | x1 = 0.1 | x1 = 0.2001 | x1 = 0.3001 | x1 = 0.4 | x1 = 0.4998 | x1 = 0.6001 | x1 = 0.6999 | x1 = 0.8001 | x1 = 0.8999 | x1 = 1
288.15 K | 1.48103 | 1.48616 | 1.49108 | 1.49581 | 1.49973 | 1.50321 | 1.50634 | 1.50874 | 1.51057 | 1.51184
293.15 K | 1.47967 | 1.48469 | 1.48946 | 1.49406 | 1.49786 | 1.50115 | 1.50412 | 1.50638 | 1.50796 | 1.509
298.15 K | 1.47829 | 1.48318 | 1.48784 | 1.49227 | 1.49597 | 1.49954 | 1.50189 | 1.504 | 1.50535 | 1.50616
303.15 K | 1.4769 | 1.48167 | 1.48619 | 1.49055 | 1.49411 | 1.49711 | 1.49967 | 1.50162 | 1.50275 | 1.50331
308.15 K | 1.47553 | 1.48015 | 1.48454 | 1.48882 | 1.49222 | 1.49515 | 1.49743 | 1.49927 | 1.50017 | 1.50048
313.15 K | 1.47412 | 1.47863 | 1.48286 | 1.48703 | 1.49024 | 1.49307 | 1.49542 | 1.49699 | 1.49777 | 1.49769
318.15 K | 1.47272 | 1.47699 | 1.4812 | 1.48522 | 1.48844 | 1.49119 | 1.49319 | 1.4947 | 1.49512 | 1.49493
323.15 K | 1.47138 | 1.47548 | 1.47953 | 1.48348 | 1.48658 | 1.48919 | 1.49101 | 1.4924 | 1.4926 | 1.49219

c1ccncc1 [pyridine] + CCCO
refractive index
Conditions | x1 = 0.1001 | x1 = 0.1998 | x1 = 0.2999 | x1 = 0.3998 | x1 = 0.5 | x1 = 0.5999 | x1 = 0.7 | x1 = 0.8 | x1 = 0.8998 | x1 = 1
288.15 K | 1.40196 | 1.41533 | 1.42836 | 1.44094 | 1.45341 | 1.46554 | 1.47748 | 1.48907 | 1.50064 | 1.51184
293.15 K | 1.39979 | 1.41307 | 1.42603 | 1.43854 | 1.45095 | 1.46301 | 1.47487 | 1.4864 | 1.49788 | 1.509
298.15 K | 1.39757 | 1.41079 | 1.42367 | 1.43616 | 1.44848 | 1.46047 | 1.47228 | 1.48375 | 1.49514 | 1.50616
303.15 K | 1.39535 | 1.40849 | 1.42136 | 1.43375 | 1.44601 | 1.45795 | 1.46968 | 1.48107 | 1.49238 | 1.50331
308.15 K | 1.3931 | 1.40618 | 1.41898 | 1.43132 | 1.44353 | 1.45541 | 1.46708 | 1.47839 | 1.48965 | 1.50048
313.15 K | 1.39068 | 1.40381 | 1.41659 | 1.42891 | 1.44102 | 1.45287 | 1.46445 | 1.47573 | 1.48683 | 1.49769
318.15 K | 1.3884 | 1.40151 | 1.41425 | 1.42648 | 1.43857 | 1.45038 | 1.46187 | 1.47309 | 1.48411 | 1.49493
323.15 K | 1.38622 | 1.39909 | 1.41179 | 1.42409 | 1.43616 | 1.44788 | 1.45942 | 1.47055 | 1.48155 | 1.49219

CC(O)CO (stereo not given) [1,2-propanediol] + c1ccncc1
refractive index
Conditions | x2 = 0 | x2 = 0.1 | x2 = 0.2 | x2 = 0.2999 | x2 = 0.4 | x2 = 0.4999 | x2 = 0.6 | x2 = 0.7001 | x2 = 0.8 | x2 = 0.9
288.15 K | 1.43411 | 1.44356 | 1.4522 | 1.46041 | 1.46838 | 1.47609 | 1.48375 | 1.49129 | 1.49866 | 1.50554
293.15 K | 1.43247 | 1.4418 | 1.4503 | 1.4584 | 1.46629 | 1.47383 | 1.4814 | 1.48884 | 1.49609 | 1.50288
298.15 K | 1.43081 | 1.43993 | 1.44839 | 1.4564 | 1.46417 | 1.47163 | 1.47909 | 1.4864 | 1.49345 | 1.49993
303.15 K | 1.42915 | 1.43816 | 1.4465 | 1.45438 | 1.46204 | 1.4694 | 1.47676 | 1.48397 | 1.49093 | 1.49727
308.15 K | 1.42751 | 1.43643 | 1.44465 | 1.45244 | 1.46 | 1.46728 | 1.47448 | 1.48152 | 1.48841 | 1.49461
313.15 K | 1.42581 | 1.43463 | 1.44276 | 1.45051 | 1.45802 | 1.46517 | 1.47224 | 1.4791 | 1.48589 | 1.49195
318.15 K | 1.42407 | 1.43286 | 1.44082 | 1.44855 | 1.45597 | 1.46296 | 1.46991 | 1.47665 | 1.48321 | 1.4894
323.15 K | 1.4223 | 1.43109 | 1.439 | 1.44676 | 1.45397 | 1.46088 | 1.46777 | 1.47441 | 1.48086 | 1.4869
